Results: patent US9365553B2, “Heterocyclic compound and H1 receptor antagonist” (Aska Pharmaceutical Co., Ltd., priority 2010, dated 2016)

What was measured:
human H1 receptor = target: T1, human H1 receptor (Homo sapiens, UniProt P35367); test: Human H1 receptor affinity test (Test Example 2); type: binding; conditions: CHO cell membrane preparation expressing human H1 receptor, [3H]-pyrilamine 2 nmol/L
T1 construct: purchased; host or cells: CHO cells
Protocol: Chinese hamster ovarian cells (CHO cells) having human H1 receptor forcibly express were purchased and used as an H1 receptor membrane preparation. […] To the resulting each sample, 50 μL of 8 nmol/L [^3H]-pyrilamine (final concentration: 2 nmol/L) was added and mixed. […] The glass filter was cut off and transferred in a vial. To the vial was added 5 mL of a scintillator (manufactured by National Diagnostics), and the mixture was shaken for not less than one hour. Thereafter, the radioactive concentration was measured by a liquid scintillation counter.

[1] = test system: histamine-induced skin reaction in rat; test: Histamine-induced skin reaction test in rat (Test Example 3); type: in vivo; conditions: oral, histamine 10 μg/0.1 mL/site intradermal, pigment area, read-out: Skin reaction test in rat ID50
Protocol: […] One hour after the administration, a 1% Evans Blue physiological saline solution (Tokyo Chemical Industry Co., Ltd.) was administered into the caudal vein in a dose of 5 mL/kg, and immediately histamine 10 μg/0.1 mL/site (manufactured by Wako Pure Chemical Industries, Ltd.) was intradermally administered into the dorsum. Thirty minutes after the administration, the rat was anesthetized with diethyl ether and then euthanized by cervical dislocation. The skin was ablated, and the major axis and minor axis of a spot of the pigment exuded into the skin were measured to calculate the area of the pigment.

[2] = test system: histamine-induced skin reaction in mouse; test: Skin reaction test in mouse (Test Example 4); type: in vivo; conditions: oral, histamine 3 μg/50 μL/site intradermal, pigment area, read-out: Skin reaction test in mouse ID50
Protocol: Each mouse was sheared the day before test and fasted overnight. A low, middle or high dose of each test compound suspended in a 0.5% (W/V) CMC-Na aqueous solution was orally administered to the mouse. One hour after the administration, a 1% Evans Blue physiological saline solution (Tokyo Chemical Industry Co., Ltd.) was administered into the caudal vein in a dose of 10 mL/kg, and immediately histamine 3 μg/50 μL/site was intradermally administered into the dorsum. Thirty minutes after the administration, the mouse was anesthetized with diethyl ether and then euthanized by cervical dislocation. The skin was ablated, and the major axis and minor axis of a spot of the pigment exuded into the skin were measured to calculate the area of the pigment.

rat H1 receptor = target: T2, rat H1 receptor (Rattus norvegicus, UniProt P31390); test: Rat H1 receptor affinity test (Test Example 1); type: binding; conditions: rat cerebrum membrane preparation, [3H]-pyrilamine 2 nmol/L
T2 construct: An H1 receptor membrane preparation was prepared from rat cerebrum; from tissue; host or cells: rat cerebrum
Protocol: An H1 receptor membrane preparation was prepared from rat cerebrum. […] To the resulting each sample, 50 μL of 8 nmol/L [^3H]-pyrilamine (manufactured by PerkinElmer) (final concentration: 2 nmol/L) was added and mixed. After the mixture was incubated at a room temperature for 30 minutes, the reaction solution was collected on a glass filter by a cell harvester (manufactured by Molecular Devices), and then the filter was washed with the incubation buffer. The glass filter was cut off and transferred in a vial. To the vial was added 5 mL of a scintillator (manufactured by National Diagnostics), and the mixture was shaken for not less than one hour. Thereafter, the radioactive concentration was measured by a liquid scintillation counter.

[3] = test system: mouse IgE-dependent ear edema model; test: Inhibitory effects on mouse IgE-dependent ear edema model (Test Example 8); type: in vivo; conditions: oral twice a day, dose a multiple of mouse ID50 (Dose column of Table E); for Inhibitory effects in each allergic reaction phase: Immediate phase: mouse ear swelling 1 hour after antigen; for Inhibitory effects in each allergic reaction phase: Late phase: mouse ear swelling 24 hours after antigen; for Inhibitory effects in each allergic reaction phase: Very late phase: mouse ear swelling 7 days after antigen;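 for all read-outs here: 5 or 10 times the mouse skin-reaction ID50 per dose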
Protocol: (§1) To each mouse, 0.25 mL of an anti-DNP-IgE antibody (manufactured by SIGMA-ALDRICH) was intravenously administered for passive sensitization. On the day following the administration, an antigen (DNFB solution; manufactured by Wako Pure Chemical Industries, Ltd.) was applied on the right ear to induce dermatitis (ear swelling). One hour, 24 hours and 7 days after the application of the antigen, the thickness of the right ear was measured by a thickness measuring apparatus (dial thickness gauge). […] The thickness of the right ear before the sensitization was measured beforehand; the inhibition rates of the swelling in immediate phase, late phase, and very late phase were calculated.

[4] = test system: mouse IgE-dependent ear edema model; test: Inhibitory effects on mouse IgE-dependent ear edema model (Test Example 5); type: in vivo; conditions: oral twice a day, dose one-third of ID50 (Dose column of Table D); for Inhibitory effects in each allergic reaction phase: Immediate phase: mouse ear swelling 1 hour after antigen; for Inhibitory effects in each allergic reaction phase: Late phase: mouse ear swelling 24 hours after antigen; for Inhibitory effects in each allergic reaction phase: Very late phase: mouse ear swelling 7 days after antigen;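 for all read-outs here: doses given 1 h before and 6 h after antigen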
Protocol: as §1

T2 sequence (P31390 whole entry): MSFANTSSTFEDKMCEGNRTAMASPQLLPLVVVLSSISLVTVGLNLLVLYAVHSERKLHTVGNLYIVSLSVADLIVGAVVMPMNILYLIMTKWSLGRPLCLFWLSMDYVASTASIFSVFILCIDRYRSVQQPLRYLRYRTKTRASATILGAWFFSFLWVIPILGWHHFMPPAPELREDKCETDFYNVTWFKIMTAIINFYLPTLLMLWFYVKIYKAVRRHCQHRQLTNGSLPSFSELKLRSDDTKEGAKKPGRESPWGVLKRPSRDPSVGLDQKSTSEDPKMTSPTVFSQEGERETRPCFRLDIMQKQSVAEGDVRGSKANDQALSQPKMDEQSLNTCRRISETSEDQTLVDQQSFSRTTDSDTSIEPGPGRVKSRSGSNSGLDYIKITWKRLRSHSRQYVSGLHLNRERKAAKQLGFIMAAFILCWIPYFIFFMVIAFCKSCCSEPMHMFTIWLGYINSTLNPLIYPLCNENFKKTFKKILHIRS
T1 sequence (P35367 whole entry): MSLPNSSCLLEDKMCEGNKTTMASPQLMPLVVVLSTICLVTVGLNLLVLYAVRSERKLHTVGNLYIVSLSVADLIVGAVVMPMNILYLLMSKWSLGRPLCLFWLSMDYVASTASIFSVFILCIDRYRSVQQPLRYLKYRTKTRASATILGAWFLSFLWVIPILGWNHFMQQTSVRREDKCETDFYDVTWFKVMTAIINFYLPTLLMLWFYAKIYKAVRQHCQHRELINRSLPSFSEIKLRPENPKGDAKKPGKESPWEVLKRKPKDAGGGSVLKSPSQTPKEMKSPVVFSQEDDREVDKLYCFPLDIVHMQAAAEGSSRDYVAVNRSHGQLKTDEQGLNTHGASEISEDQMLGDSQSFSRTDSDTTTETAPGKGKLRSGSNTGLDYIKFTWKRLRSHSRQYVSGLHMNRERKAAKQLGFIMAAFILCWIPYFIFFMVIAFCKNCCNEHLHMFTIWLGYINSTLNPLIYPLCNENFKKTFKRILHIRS

| SMILES | IC50 (human H1 receptor) [nM] | IC50 (rat H1 receptor) [nM] | ED50 [1] [mg/kg] | ED50 [2] [mg/kg] | Inhibitory effects in each allergic reaction phase: Immediate phase [3] | Inhibitory effects in each allergic reaction phase: Late phase [3] | Inhibitory effects in each allergic reaction phase: Very late phase [3] | Inhibitory effects in each allergic reaction phase: Immediate phase [4] | Inhibitory effects in each allergic reaction phase: Late phase [4] | Inhibitory effects in each allergic reaction phase: Very late phase [4] |
| --- | --- | --- | --- | --- | --- | --- | --- | --- | --- | --- |
| O=C(O)CCCN1CCC(O[C@@H](c2ccc(Cl)cc2)c2ccccn2)CC1 [Bepotastine] | 20 | 170 | 0.5 | 0.02 | – | – | – | – | – | – |
| O=C(O)c1cc(CN2CCC(OC(c3ccccc3)c3ccccc3)CC2)cs1 [Example 5] | 10 | 7 | 1.8 | 0.11 | – | – | – | – | – | – |
| O=C(O)c1cccc(CN2CCN(C(c3ccc(F)cc3)c3ccc(F)cc3)CC2)n1 [Example 11, 6-{4-[bis(4-fluorophenyl)methyl]piperazin-1-ylmethyl}pyridine-2-carboxylic acid] | 22 | 280 | 0.3 | 0.01 | ++ (++ Inhibitory rate 45 to 20%) | ++ (++ Inhibitory rate 45 to 20%) | ++ (++ Inhibitory rate 45 to 20%) | ++ (++ Inhibitory rate 45 to 25%) | ++ (++ Inhibitory rate 45 to 25%) | ++ (++ Inhibitory rate 45 to 25%) |
| O=C(O)c1ccnc(CN2CCC(OC(c3ccccc3)c3ccccc3)CC2)c1 [Example 27] | 8.9 | 31 | – | 0.03 | ++ (++ Inhibitory rate 45 to 20%) | ++ (++ Inhibitory rate 45 to 20%) | ++ (++ Inhibitory rate 45 to 20%) | – | – | – |
| O=C(O)c1cccc(CN2CCC(=C3c4ccc(Cl)cc4CCc4cccnc43)CC2)c1 [Example 67, 3-[4-(8-Chloro-5,6-dihydrobenzo[5,6]cyclohepta[1,2-b]pyridin-11-ylidene)piperidin-1-ylmethyl]benzoic acid] | – | – | 1.2 | 0.09 | – | – | – | – | – | – |
| CN(C)CC/C=C1/c2ccccc2COc2ccc(CC(=O)O)cc21 [Olopatadine] | – | – | – | – | ++ (++ Inhibitory rate 45 to 20%) | − (− Inhibitory rate less than 10%) | − (− Inhibitory rate less than 10%) | ++ (++ Inhibitory rate 45 to 25%) | − (− Inhibitory rate less than 10%) | + (+ Inhibitory rate 24 to 10%) |

Further compounds by falling IC50 (human H1 receptor), results first:

| IC50 (human H1 receptor) [nM] | IC50 (rat H1 receptor) [nM] | SMILES | ED50 [1] [mg/kg] | ED50 [2] [mg/kg] | Inhibitory effects in each allergic reaction phase: Immediate phase [3] | Inhibitory effects in each allergic reaction phase: Late phase [3] | Inhibitory effects in each allergic reaction phase: Very late phase [3] | Inhibitory effects in each allergic reaction phase: Immediate phase [4] | Inhibitory effects in each allergic reaction phase: Late phase [4] | Inhibitory effects in each allergic reaction phase: Very late phase [4] |
| --- | --- | --- | --- | --- | --- | --- | --- | --- | --- | --- |
| 25 | 53 | O=C(O)c1cccc(CN2CCC(OC(c3ccccc3)c3ccc(F)c(F)c3)CC2)n1 (stereo not drawn) [Example 48] | 2.9 | 0.05 | – | – | – | – | – | – |
| 14 | 28 | O=C(O)c1cccc(CN2CCC(=C3c4ccccc4C=Cc4cccnc43)CC2)c1 [Example 70] | 1.6 | 0.12 | – | – | – | – | – | – |
| 14 | 16 | O=C(O)c1cccc(CN2CCC(=C3c4ccccc4C=Cc4cccnc43)CC2)n1 [Example 71] | 0.6 | 0.07 | – | – | – | – | – | – |
| 13 | 5.7 | O=C(O)c1cccc(CN2CCC(OC(c3ccccc3)c3ccc(Cl)cc3)CC2)n1 (stereo not drawn) [Example 22] | 0.5 | 0.01 | – | – | – | – | – | – |
| 12 | 75 | O=C(O)c1cccc(C(F)(F)N2CCC(OC(c3ccccc3)c3ccccc3)CC2)n1 [Example 37, 6-[(4-Benzhydryloxypiperidin-1-yl)difluoromethyl]pyridine-2-carboxylic acid] | 3.2 | 0.06 | – | – | – | – | – | – |
| 10 | 25 | O=C(O)c1cccc(CN2CCC(OC(c3ccccc3)c3ccccc3)CC2)n1 [Example 2, 6-(4-benzhydryloxypiperidin-1-ylmethyl)pyridine-2-carboxylic acid] | 3.4 | 0.1 | ++ (++ Inhibitory rate 45 to 20%) | ++ (++ Inhibitory rate 45 to 20%) | + (+ Inhibitory rate 19 to 10%) | ++ (++ Inhibitory rate 45 to 25%) | ++ (++ Inhibitory rate 45 to 25%) | + (+ Inhibitory rate 24 to 10%) |
| 6.8 | 72 | O=C(O)c1ccnc(CN2CCC(OC(c3ccccc3)c3ccc(F)cc3)CC2)c1 (stereo not drawn) [Example 39] | 1.3 | 0.04 | ++ (++ Inhibitory rate 45 to 20%) | ++ (++ Inhibitory rate 45 to 20%) | ++ (++ Inhibitory rate 45 to 20%) | ++ (++ Inhibitory rate 45 to 25%) | ++ (++ Inhibitory rate 45 to 25%) | ++ (++ Inhibitory rate 45 to 25%) |
